Test results from patent US11214578B2, “Urea/carbamates FAAH MAGL or dual FAAH/MAGL inhibitors and uses thereof” (Northeastern University, priority 2014, dated 2022).

Legend:
Format in all cases: biochemical
Human FAAH (MBPΔTMhFAAH) = target: T1, Human FAAH (MBPΔTMhFAAH) (Homo sapiens, UniProt O00519); experiment: Fluorescent assay protocol for hFAAH; settings: human FAAH (MBP fusion, ΔTM), procedure as for rFAAH
T1 construct: made in house; host or cells: E. coli (pMALcE4 vector)
T1 sequence (O00519 30-579 limits assumed): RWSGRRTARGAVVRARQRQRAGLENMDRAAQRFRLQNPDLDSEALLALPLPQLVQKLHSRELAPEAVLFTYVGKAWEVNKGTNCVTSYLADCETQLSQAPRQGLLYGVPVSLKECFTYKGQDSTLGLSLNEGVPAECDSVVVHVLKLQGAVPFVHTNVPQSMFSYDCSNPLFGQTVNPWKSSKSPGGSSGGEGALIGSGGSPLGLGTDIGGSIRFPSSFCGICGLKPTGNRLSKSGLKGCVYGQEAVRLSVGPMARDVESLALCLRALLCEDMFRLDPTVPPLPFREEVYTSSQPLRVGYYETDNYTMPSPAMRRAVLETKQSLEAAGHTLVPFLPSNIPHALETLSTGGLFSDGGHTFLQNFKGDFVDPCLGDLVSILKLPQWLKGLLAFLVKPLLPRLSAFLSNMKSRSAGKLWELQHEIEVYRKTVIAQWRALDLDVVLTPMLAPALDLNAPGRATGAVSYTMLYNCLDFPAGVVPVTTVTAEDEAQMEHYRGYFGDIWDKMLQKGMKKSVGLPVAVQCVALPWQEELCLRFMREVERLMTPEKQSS
Summary of the method: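 MBP-fused ΔTM human FAAH from E. coli, pre-incubated 15 min at 25 °C with compound in 50 mM HEPES, 1 mM EDTA, 0.1% BSA, pH 7.4 (DMSO below 8%). Substrate AAMCA 20 μM (2×Km); fluorescence (ex 360/em 460) at 3 h gave % inhibition vs uninhibited control, triplicate, IC50 fitted.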

Rat MAGL (rMAGL) = target: T2, Rat MAGL (rMAGL) (Rattus norvegicus, UniProt Q8R431); experiment: Fluorescent assay protocol for rMAGL; settings: recombinant rat MAGL, procedure as for hMAGL; read-out: IC50 rMAGL
T2 construct: made in house; host or cells: E. coli
T2 sequence (Q8R431 1-303): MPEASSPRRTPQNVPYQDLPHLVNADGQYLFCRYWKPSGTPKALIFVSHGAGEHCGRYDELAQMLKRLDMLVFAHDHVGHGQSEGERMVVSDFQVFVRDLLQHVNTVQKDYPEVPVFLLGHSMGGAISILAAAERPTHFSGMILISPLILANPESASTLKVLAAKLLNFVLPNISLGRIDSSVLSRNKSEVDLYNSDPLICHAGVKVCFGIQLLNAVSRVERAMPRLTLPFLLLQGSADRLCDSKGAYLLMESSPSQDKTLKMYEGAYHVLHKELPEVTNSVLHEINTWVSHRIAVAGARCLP
Summary of the method: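 Rat MAGL run as for the human enzyme: AHMMCE substrate hydrolysis to fluorescent coumarin followed at 25° C. for 120 min, read every 15 min at 360/460 nm.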

Human MAGL (hMAGL) = target: T3, Human MAGL (hMAGL) (Homo sapiens, UniProt Q99685); experiment: Fluorescent assay protocol for hMAGL (AHMMCE substrate); settings: recombinant human MAGL, AHMMCE substrate, 15 min preincubation; read-out: IC50 hMAGL
T3 construct: hexahistidine; made in house; host or cells: E. coli
T3 sequence (Q99685 1-303): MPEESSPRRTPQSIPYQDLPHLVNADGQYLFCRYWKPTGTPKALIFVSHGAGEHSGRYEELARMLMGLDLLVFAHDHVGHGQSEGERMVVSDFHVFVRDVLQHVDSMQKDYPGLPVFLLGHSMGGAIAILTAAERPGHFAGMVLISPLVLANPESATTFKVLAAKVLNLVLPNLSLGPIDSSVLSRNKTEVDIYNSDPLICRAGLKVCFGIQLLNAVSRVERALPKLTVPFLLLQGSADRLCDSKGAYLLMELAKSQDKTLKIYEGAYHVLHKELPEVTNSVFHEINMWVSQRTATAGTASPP
Summary of the method: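 Hydrolysis of AHMMCE by human MAGL was monitored at 25°C for 120 min, with fluorescence at 360/460 nm recorded every 15 min and converted to 4-methylcoumarin using external standards. IC50 values were derived from triplicate wells at each inhibitor concentration.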

ΔTM rat FAAH = target: T4, ΔTM rat FAAH (Rattus norvegicus, UniProt P97612); experiment: Fluorescent assay protocol for ΔTM rat FAAH (AAMCA substrate); settings: 15 min preincubation, read-out: IC50 rFAAH
T4 construct: Preparation of Transmembrane Domain-Deleted Rat FAAH (ΔTM rFAAH); made in house; host or cells: E. coli
T4 sequence (P97612 30-579 limits assumed): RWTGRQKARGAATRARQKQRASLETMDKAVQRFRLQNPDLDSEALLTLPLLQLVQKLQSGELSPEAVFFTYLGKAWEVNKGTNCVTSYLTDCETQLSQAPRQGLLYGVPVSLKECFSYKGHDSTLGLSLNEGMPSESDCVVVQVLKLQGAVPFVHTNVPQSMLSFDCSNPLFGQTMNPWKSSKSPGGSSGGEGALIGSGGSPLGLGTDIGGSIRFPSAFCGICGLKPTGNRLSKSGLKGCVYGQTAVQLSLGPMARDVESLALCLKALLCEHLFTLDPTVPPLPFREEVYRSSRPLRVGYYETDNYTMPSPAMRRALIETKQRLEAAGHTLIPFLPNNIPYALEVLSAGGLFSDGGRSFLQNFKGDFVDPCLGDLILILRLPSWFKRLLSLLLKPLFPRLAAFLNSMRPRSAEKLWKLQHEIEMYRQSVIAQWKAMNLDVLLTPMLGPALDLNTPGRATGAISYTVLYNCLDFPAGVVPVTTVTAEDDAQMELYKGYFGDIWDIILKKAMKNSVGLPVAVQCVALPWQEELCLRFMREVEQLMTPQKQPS
Summary of the method: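 ΔTM rat FAAH (15 μg) was pre-incubated 15 min at 25° C with compound (screening at 1, 10 and 100 μM), then reacted with the fluorigenic substrate AAMCA. Percent inhibition came from fluorescence at 3 h (linear kinetics) relative to no-inhibitor controls, in triplicate.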

| IC50 (Human FAAH (MBPΔTMhFAAH)) | IC50 (Rat MAGL (rMAGL)) | IC50 (Human MAGL (hMAGL)) | IC50 (ΔTM rat FAAH) | SMILES |
| --- | --- | --- | --- | --- |
| 10 to 100 nM | > 1000 nM | > 1000 nM | 10 to 100 nM | NC(=O)c1cccc(-c2cccc(NC(=O)N3CCN(Cc4ccc(-c5ccccc5)cc4)CC3)c2)c1 [Example 10, 4-([1,1′-biphenyl]-4-ylmethyl)-N-(3′-carbamoyl-[1,1′-biphenyl]-3-yl)piperazine-1-carboxamide] |
| 10 to 100 nM | 10 to 100 nM | 10 to 100 nM | 110 to 1000 nM | N#Cc1ccc(F)c(OC(=O)N2CCC(S(=O)(=O)c3ccc(Br)cc3)CC2)c1 [Example 60, 5-Cyano-2-fluorophenyl 4-(4-bromophenylsulfonyl)piperidine-1-carboxylate] |
| 10 to 100 nM | > 1000 nM | > 1000 nM | 10 to 100 nM | O=C(N1C[C@@H]2C[C@H]1CN2c1ccccn1)n1cnc(-c2ccccc2)c1 [Example 96, (4-phenyl-1H-imidazol-1-yl)((1S,4S)-5-(pyridin-2-yl)-2,5-diazabicyclo[2.2.1]heptan-2-yl)methanone] |
| 110 to 1000 nM | > 1000 nM | > 1000 nM | 110 to 1000 nM | O=C(N1CCN(C(c2ccc(F)cc2)c2ccc(F)cc2)CC1)n1cnc(-c2ccccc2)c1 [Example 29, (4-(bis(4-fluorophenyl)methyl)piperazin-1-yl)(4-phenyl-1H-imidazol-1-yl)methanone] |
| 110 to 1000 nM | > 1000 nM | > 1000 nM | 10 to 100 nM | CC1CN(c2ccccc2)CCN1C(=O)n1cnc(-c2ccccc2)c1 (centres unmarked) [Example 23, (2-methyl-4-phenylpiperazin-1-yl)(4-phenyl-1H-imidazol-1-yl)methanone] |
| 10 to 100 nM | > 1000 nM | > 1000 nM | 10 to 100 nM | Cc1ccc(N2CCN(C(=O)n3cnc(-c4ccccc4)c3)CC2C)cc1 (centres unmarked) [Example 25, (3-methyl-4-(p-tolyl)piperazin-1-yl)(4-phenyl-1H-imidazol-1-yl)methanone] |
| 10 to 100 nM | > 1000 nM | > 1000 nM | 10 to 100 nM | O=C(N1CC(N2CCC(Cc3ccccc3)CC2)C1)n1cnc(-c2ccccc2)c1 [Example 84, (3-(4-Benzylpiperidine)azetidin-1-yl)(4-phenyl[1H]imizadol-1-yl)methanone] |
| 10 to 100 nM | > 1000 nM | > 1000 nM | 10 to 100 nM | O=C(N1CCN(C(c2ccccc2)c2ccccc2)CC1)n1nnnc1Cc1ccccc1 [Example 31, (4-benzhydrylpiperazin-1-yl)(5-benzyl-1H-tetrazol-1-yl)methanone] |
| 110 to 1000 nM | > 1000 nM | > 1000 nM | 110 to 1000 nM | O=C(N1C[C@@H]2C[C@H]1CN2c1cccc(F)c1)n1cnc(-c2ccccc2)c1 [Example 97, ((1 S,4S)-5-(3-fluorophenyl)-2,5-diazabicyclo[2.2.1]heptan-2-yl)(4-phenyl-1H-imidazol-1-yl)methanone] |
| 110 to 1000 nM | > 1000 nM | > 1000 nM | 110 to 1000 nM | C[C@H]1CN(C(=O)Nc2cccc(-c3cccc(C#N)c3)c2)CCN1Cc1ccc2ccccc2n1 [Example 19, (S)—N-(3′-cyano-[1,1′-biphenyl]-3-yl)-3-methyl-4-(quinolin-2-ylmethyl)piperazine-1-carboxamide] |

| SMILES | IC50 (Human FAAH (MBPΔTMhFAAH)) | IC50 (Rat MAGL (rMAGL)) | IC50 (Human MAGL (hMAGL)) | IC50 (ΔTM rat FAAH) |
| --- | --- | --- | --- | --- |
| N#Cc1ccnc(OC(=O)N2CCN(C3c4ccccc4-c4ccccc43)CC2)c1 [Example 42, 4-cyanopyridin-2-yl 4-(9H-fluoren-9-yl)piperazine-1-carboxylate] | > 1000 nM | 10 to 100 nM | 10 to 100 nM | > 1000 nM |
